Laboratory results from ChEMBL document CHEMBL2163191, “Antiallergic activity profile in vitro RBL-2H3 and in vivo passive cutaneous anaphylaxis mouse model of new sila-substituted 1,3,4-oxadiazoles” (J Med Chem, 2012).
The source made the active and inactive calls. No cut-off for these calls is given here.

Assays:
[1] = test system: RBL-2H3; experiment: Antidegranulation effect in DNP-HSA induced rat RBL2H3 cells assessed as IgE/Ag complex-induced degranulation preincubated for 30 mins before DNP-HSA challenge for 15 mins by beta-hexosaminidase release based microplate reader method; assay type: functional, cell-based
[2] = test system: Mus musculus; experiment: Antiallergic activity in IgE/Ag-induced passive cutaneous anaphylactic ICR mouse model injected with DNP-HSA-Evans blue dye post DNP-IgE challenge at 50 mg/kg, po 1 hr before antigenic challenge measured after 2 hrs post IgE/Ag challenge; assay type: functional, organism-based; design: dose 50 mg/kg
[3] = test system: RBL-2H3; experiment: Inhibition of TNFalpha mRNA expression in IgE/Ag-stimulated rat RBL2H3 cells incubated in presence of DNP-HSA for 1 hr post compound dosing by RT-PCR; assay type: functional, cell-based
[4] = test system: RBL-2H3; experiment: Cytotoxicity against IgE/Ag-stimulated rat RBL2H3 cells at 50 to 200 uM incubated for 23 hrs by Ez-cytox assay; assay type: cell-based; conditions: rbl-2h3, 23 h
[5] = test system: Mus musculus; experiment: Antiallergic activity in IgE/Ag-induced passive cutaneous anaphylactic ICR mouse model injected with DNP-HSA-Evans blue dye post DNP-IgE challenge at 50 to 100 mg/kg, po 1 hr before antigenic challenge measured after 2 hrs post IgE/Ag challenge; assay type: functional, organism-based
[6] = test system: RBL-2H3; experiment: Inhibition of PI3K-mediated Akt phosphorylation in IgE/Ag-induced rat RBL2H3 cells incubated in presence of DNP-HSA for 1 hr post compound dosing by Western blotting; assay type: cell-based

SMILES: CC(C)(C)CS(=O)(=O)Cc1nnc(-c2ccc(Cl)cc2)o1
- Activity [1]: inactive

SMILES: CN(C)CCOC(c1ccccc1)c1ccccc1
- Activity [2]: Active

SMILES: C[Si](C)(C)CS(=O)(=O)Cc1nnc(-c2ccc(Cl)cc2)o1
- inhibition [3]: Dose-dependent effect
- Activity [4]: Non-toxic
- Activity [1]: Dose-dependent effect
- Activity [5]: Active
- inhibition [6]: Dose-dependent effect
